Assay results as given in US20240076609A1, “COMPOSITIONS AND METHODS FOR CULTURING AND EXPANDING CELLS” (LIFE TECHNOLOGIES CORPORATION, priority 2017, published 2024).
Values joined by “and” are separate entries in the source; they are usually repeats but may differ in a detail not shown here. Equal entries are not always repeated.

Columns and labels:
[1] = system: Non-naïve T cells; assay: CD8+/CD4+ phenotype after 10 days with 2-DG in non-naïve T cells; type: cell-based, human; details: 4 mM 2-DG
Method: (§1) For some studies, CD8+ and CD4+ T cells were isolated from PBMCs by negative selection using Untouched Human CD8+ and CD4+ T Cells Kits. Naïve and non-naïve T cells were isolated from enriched T cells by positive selection using CD45RA nanobeads (Miltenyi). Phenotype: Primary human T cells were expanded for 10 days with and without 2-DG and 5% human AB serum. DYNABEADS® were removed from 2×10^6 cells by magnetic separation. Surface staining was performed with antibodies against CD3 (Invitrogen, Cat. No. CD0329), CD4 (Molecular Probes, Cat. No. A15858), CD8 (Invitrogen, Cat. No. MHCD0828). Flow cytometric analysis was performed on a Gallios flow cytometer and Kaluza software (Beckman Coulter, Indianapolis IN). For some studies, CD8+ and CD4+ T cells were isolated from PBMCs by negative selection using Untouched Human CD8+ and CD4+ T Cells Kits. Naïve and non-naïve T cells were isolated from enriched T cells by positive selection using CD45RA nanobeads (Miltenyi). Phenotype: Primary human T cells were expanded for 10 days with and without 2-DG and 5% human AB serum. DYNABEADS® were removed from 2×10^6 cells by magnetic separation. Surface staining was performed with antibodies against CD3 (Invitrogen, Cat. No. CD0329), CD4 (Molecular Probes, Cat. No. A15858), CD8 (Invitrogen, Cat. No. MHCD0828). Flow cytometric analysis was performed on a Gallios flow cytometer and Kaluza software (Beckman Coulter, Indianapolis IN).

[2] = system: Naïve T cells; assay: Expansion of naïve T cells with 2-DG; type: cell-based, human; details: 4 mM 2-DG
Method: T cell activation and expansion: T cells (seeding density 1×10^6 vc/mL) were activated with DYNABEADS® Human T-Expander CD3/CD28 (Thermo Fisher Scientific, Cat. No. 11141D) at a ratio of 3 beads per T cell and cultured in serum-free medium, animal origin free medium. T cells were counted on days 5, 7, 10, and 12 on a Vi-CELL XR analyzer (Beckman Coulter, Indianapolis IN) and fed with or without 2-DG (0.25 mM, 0.5 mM, 1 mM, 2 mM, and 4 mM) and 5% human AB serum to a density of 5×10^5 vc/mL on days 3, 5, and 7 and 1×10^6 vc/mL on day 10. For some studies, CD8+ and CD4+ T cells were isolated from PBMCs by negative selection using Untouched Human CD8+ and CD4+ T Cells Kits. Naïve and non-naïve T cells were isolated from enriched T cells by positive selection using CD45RA nanobeads (Miltenyi). […]

[3] = system: Naïve T cells; assay: CD8+/CD4+ phenotype after 10 days with 2-DG in naïve T cells; type: cell-based, human; details: 4 mM 2-DG
Method: as §1

[4] = system: Primary human T cells; assay: T cell expansion with 2-DG introduced at days 0, 3, 5, 7 or at every feed; type: cell-based
Method: Stimulation of T cells with DYNABEADS® Human T-Expander CD3/CD28 at a ratio of 3 beads per T cell and cultured in serum-free, animal origin free medium and culturing the cells with 2-DG. Followed by feeding the cells with 2-DG at various time points (day 3, day 5, day 7, and every time cells were fed).
Treatment with supplement was started on day 0, 3, 5, 7 and maintained with subsequent feedings. T cells were cultured for 12 days in serum-free T cell medium and in X-VIVO™ 15 medium supplemented with 5% human AB serum.
2-DG was cultured with the cells on day 0, 3, 5, 7 and maintained with subsequent feedings. T cells were cultured for 12 days in serum-free T cell medium and in medium with 5% Human AB Serum.

[5] = Day 10, non-naïve T cells, replicates

O=CC[C@@H](O)[C@H](O)[C@H](O)CO [2-DG, 2-Deoxy-D-Glucose]
effect on CD8+:CD4+ ratio in non-naïve T cells ([1]; 10 days): lesser effect
% CD4+ (Avg) ([1]; Day 10, non-naïve T cells): 81.08%
% CD8+ (Avg) ([1]; Day 10, non-naïve T cells): 12.23%
% Ratios (CD8+/CD4+) ([1]; Day 10, non-naïve T cells): 0.15
% CD4+ [1, 5]: 80.85% and 81.31%
% CD8+ [1, 5]: 12.23%
Fold Increase compared to Baseline ([1]; Day 10 vs Day 0, non-naïve T cells): 0.35
effect of 2-DG on growth of naïve T cells ([2]; 12 days): did not affect growth of either cell type
Cultured Naïve T Cell Population Doublings ([2]; day 5): 1.70
Cultured Naïve T Cell Population Doublings ([2]; day 7): 3.92
Cultured Naïve T Cell Population Doublings ([2]; day 10): 5.45
Cultured Naïve T Cell Population Doublings ([2]; day 12): 6.13
% CD4+ (Avg) ([3]; Day 10): 59.69%
% CD8+ (Avg) ([3]; Day 10): 36.66%
% Ratios (CD8+/CD4+) ([3]; Day 10): 2.07
% CD4+ ([3]; Day 10, replicates): 25.82% and 25.23%
% CD8+ ([3]; Day 10, replicates): 52.71% and 53.26%
Fold Increase compared to Baseline ([3]; Day 10 vs Day 0): 3.38
Cultured T Cell Population Doublings ([4]; 0.25 mM 2-DG at Day 0, culture day 0): 0
Cultured T Cell Population Doublings ([4]; 0.25 mM 2-DG at Day 0, culture day 5): 1.71
Cultured T Cell Population Doublings ([4]; 0.25 mM 2-DG at Day 0, culture day 7): 3.69
Cultured T Cell Population Doublings ([4]; 0.25 mM 2-DG at Day 0, culture day 10): 6.53
Cultured T Cell Population Doublings ([4]; 0.25 mM 2-DG at Day 0, culture day 12): 7.47
Cultured T Cell Population Doublings ([4]; 0.25 mM 2-DG at Day 0, day 5): 1.71
Cultured T Cell Population Doublings ([4]; 0.25 mM 2-DG at Day 0, day 7): 3.69
Cultured T Cell Population Doublings ([4]; 0.25 mM 2-DG at Day 0, day 10): 6.53
Cultured T Cell Population Doublings ([4]; 0.25 mM 2-DG at Day 0, day 12): 7.47
Cultured T Cell Population Doublings ([4]; 0.25 mM 2-DG at Day 3, culture day 0): 0
Cultured T Cell Population Doublings ([4]; 0.25 mM 2-DG at Day 3, culture day 5): 1.90
Cultured T Cell Population Doublings ([4]; 0.25 mM 2-DG at Day 3, culture day 7): 3.36
Cultured T Cell Population Doublings ([4]; 0.25 mM 2-DG at Day 3, culture day 10): 5.80
Cultured T Cell Population Doublings ([4]; 0.25 mM 2-DG at Day 3, culture day 12): 6.34
Cultured T Cell Population Doublings ([4]; 0.25 mM 2-DG at Day 3, day 5): 1.90
Cultured T Cell Population Doublings ([4]; 0.25 mM 2-DG at Day 3, day 7): 3.36
Cultured T Cell Population Doublings ([4]; 0.25 mM 2-DG at Day 3, day 10): 5.80
Cultured T Cell Population Doublings ([4]; 0.25 mM 2-DG at Day 3, day 12): 6.34
Cultured T Cell Population Doublings ([4]; 0.25 mM 2-DG at Day 5, culture day 0): 0
Cultured T Cell Population Doublings ([4]; 0.25 mM 2-DG at Day 5, culture day 5): 1.75
Cultured T Cell Population Doublings ([4]; 0.25 mM 2-DG at Day 5, culture day 7): 3.50
Cultured T Cell Population Doublings ([4]; 0.25 mM 2-DG at Day 5, culture day 10): 5.82
Cultured T Cell Population Doublings ([4]; 0.25 mM 2-DG at Day 5, culture day 12): 6.59
Cultured T Cell Population Doublings ([4]; 0.25 mM 2-DG at Day 5, day 5): 1.75
Cultured T Cell Population Doublings ([4]; 0.25 mM 2-DG at Day 5, day 7): 3.50
Cultured T Cell Population Doublings ([4]; 0.25 mM 2-DG at Day 5, day 10): 5.82
Cultured T Cell Population Doublings ([4]; 0.25 mM 2-DG at Day 5, day 12): 6.59
Cultured T Cell Population Doublings ([4]; 0.25 mM 2-DG at Day 7, culture day 0): 0
Cultured T Cell Population Doublings ([4]; 0.25 mM 2-DG at Day 7, culture day 5): 1.70
Cultured T Cell Population Doublings ([4]; 0.25 mM 2-DG at Day 7, culture day 7): 3.48
Cultured T Cell Population Doublings ([4]; 0.25 mM 2-DG at Day 7, culture day 10): 5.83
Cultured T Cell Population Doublings ([4]; 0.25 mM 2-DG at Day 7, culture day 12): 6.44
Cultured T Cell Population Doublings ([4]; 0.25 mM 2-DG at Day 7, day 5): 1.70
Cultured T Cell Population Doublings ([4]; 0.25 mM 2-DG at Day 7, day 7): 3.48
Cultured T Cell Population Doublings ([4]; 0.25 mM 2-DG at Day 7, day 10): 5.83
Cultured T Cell Population Doublings ([4]; 0.25 mM 2-DG at Day 7, day 12): 6.44
population doublings ([4]; 0.25 mM 2-DG at day 0, 3, 5, 7 and every feed): 6 to 7 population doublings
Cultured T Cell Population Doublings ([4]; 0.25 mM 2-DG at every feed, culture day 0): 0
Cultured T Cell Population Doublings ([4]; 0.25 mM 2-DG at every feed, culture day 5): 1.61
Cultured T Cell Population Doublings ([4]; 0.25 mM 2-DG at every feed, culture day 7): 3.80
Cultured T Cell Population Doublings ([4]; 0.25 mM 2-DG at every feed, culture day 10): 6.03
Cultured T Cell Population Doublings ([4]; 0.25 mM 2-DG at every feed, culture day 12): 6.82
Cultured T Cell Population Doublings ([4]; 0.25 mM 2-DG at every feed, day 5): 1.61
Cultured T Cell Population Doublings ([4]; 0.25 mM 2-DG at every feed, day 7): 3.80
Cultured T Cell Population Doublings ([4]; 0.25 mM 2-DG at every feed, day 10): 6.03
Cultured T Cell Population Doublings ([4]; 0.25 mM 2-DG at every feed, day 12): 6.82
